Structures are written as SMILES. Counter-ions that a name gives are not always drawn.

A short description of series [1]: Pharmacokinetics and subjective effects in human volunteers. The following applies: standardized questionnaires. It counts as in vivo. The method, then: The compound from example 6 (N,N diisopropyltryptamine-4-glutarate) is administered to human volunteers by subcutaneous injection of a sterile solution (1 mg/ml) at a dosage of 0.1-0.6 mg/kg. Blood samples are taken at 5, 15, 30, 45, 60, 120, 240 and 480 min and 24 h. Samples are analyzed by LCMS for drug and prodrug. Subjective effects are measured using standardized questionnaires.
The compound from example 2 (4-hemisuccinate of 4-OH-DiPT) is administered to human volunteers by oral ingestion of a tablet containing 50 mg of the prodrug. Blood samples are taken at 5, 15, 30, 45, 60, 120, 240 and 480 min and 24 h. Samples are analyzed by LCMS for drug and prodrug. Subjective effects are measured using standardized questionnaires.

For a further series, the system named is rats. As to the kind of experiment: Head Twitch Response (HTR) / Wet Dog Shakes by visual observation. It counts as in vivo. Particulars: after injection of the compound from example 9, highest intensity at the Tmax of the PK profile. The protocol:
In some cases, Head Twitch Response (HTR) or Wet Dog Shakes (WDS) were recorded by visual observation and counting of the relevant muscle twitches.

A further series is described as follows: Solubility in water. It is filed as physicochemical. Particulars: HCl salt solid. The method, then: The structure was confirmed by NMR. Purity was determined by HPLC (>97%). The solid was resuspended in […] HCl-dioxane to form the HCl salt which was filtered, washed with ether and dried. Yield (>95%, purity >95%; DSC endotherm 174C). The solid could be dissolved in water up to 50 mg/ml and lyophilized to form a white “cake”.

Series [2] deals with human patient suffering depression. As to the kind of experiment: Use in treatment of a human patient suffering depression. It counts as in vivo. The following applies: i.m. or s.c. injection (ca. 25 mg) or oral (ca. 50-200 mg). The method, then:
The compound of example 6 (N,N diisopropyltryptamine-4-glutarate) is administered by i.m. or s.c. injection (ca. 25 mg; 0.4-0.5 mg/kg) to a human patient suffering depression, or by oral administration (ca. 50-200 mg; 0.8-3.2 mg/kg) with tablets. In another example of use, the compound of example 6 (4-hemiglutarate of 4-OH-DiPT) is similarly administered. Prior to the dosing session, the patient is qualified for the experience by measurement of depression scores, screened for exclusions (e.g. history of psychoses, unfavorable heart condition, pregnancy) and finally, the patient is encouraged to formulate an intent for the dosing session. Dosing is performed in a quiet clinic setting with the patient resting comfortably in an inclined, but unrestrained, position to avoid falls. The patients' eyes are covered, and music is applied. The drug is administered. After 4 h, the patient reports no longer feeling the effects of the drug and is asked to sit up while under supervision. Feeling normal, the patient is allowed to stand (supervised) and feeling in control, is allowed to move around. One hour later, the patient is discharged. Later by 24 h, the patient returns to the clinic to meet with a psychotherapist to recount the session. The patient records a depression score via questionnaire and is again discharged. […]

Series [3] in a line: Control hydrolysis in simulated gastric fluid (SGF, pH 2). It counts as physicochemical. The method, then:
(§1) Pooled mixed gender human plasma (2 ml), mouse plasma, rat plasma and dog plasma were equilibrated at 37° C. The compound of example 9 was added so as to achieve a concentration of 1.0 ug/mL. Aliquots (50 uL) of the mixture were withdrawn at timed intervals (0, 0.004, 0.5, 1, 2 and 4 hours) and quenched with 200 uL of methanol/acetonitrile (1:1). The samples were vortexed and stored at −80° C. until analysis. Assays were done in triplicate. Control samples were done in phosphate buffered saline (PBS, pH 7.4) and simulated gastric fluid (SGF, pH 2). Analysis of samples as performed by HPLC-MS to determine the amounts of prodrug and drug in each sample tested. Table 1 provides the mean concentrations of prodrug remaining at different time points of the experiment.

A short description of series [4]: Prodrug hydrolysis in rat plasma at 37° C. It is filed as in vitro ADME. Particulars: 1.0 ug/mL. The protocol:
as §1

A short description of series [5]: Prodrug hydrolysis in mouse plasma at 37° C. It counts as in vitro ADME. The following applies: 1.0 ug/mL. The protocol: as §1
Series [6] in a line: Pharmacokinetics in rats (i.v. and s.c. injection, LCMS of drug and prodrug). It is filed as in vivo. Particulars: rodent, 1.4-2 mg/kg. The method, then:
The compound from example 9 was administered to rats by injection (intravenous and subcutaneous) with a sterile solution (2 mg/ml) at a rate of 1.4-2 mg/kg. Blood samples were taken at 15, 30, 45, 60, 120, 240 min and 360 min and analyzed by LCMS for drug and prodrug. PK profile for the prodrug and active species were obtained and relative bioavailability was determined for each of the routes of administration.
Pharmacokinetics of 1.34 mg/ml 4-HO-DiPT HCl administered by intravenous or subcutaneous injection were performed in parallel under identical conditions as above. […] Immediately obvious is the increased variability with the active species when administered s.c. and intravenous administrations.

Series [7] is described as follows: Prodrug hydrolysis in dog plasma at 37° C. It counts as in vitro ADME. The following applies: 1.0 ug/mL. The method, then:
as §1

Series [8] is described as follows: Control hydrolysis in phosphate buffered saline (PBS). It is filed as physicochemical. The following applies: PBS (pH 7). The method, then:
as §1

Series [9] is described as follows: Prodrug hydrolysis in pooled mixed gender human plasma at 37° C. It counts as in vitro ADME. The following applies: 1.0 ug/mL. The protocol:
as §1

`CC(C)N(CCc1c[nH]c2cccc(OC(=O)CCC(=O)O)c12)C(C)C` [Example 2, 4-hemisuccinate of 4-hydroxy-diisopropyltryptamine (4-OH-DiPT)]: in series [1] (oral tablet 50 mg), the “Subjective effects (intensity of psychoactivity)” value was “correlates with blood levels”.

`CC(C)N(CCc1c[nH]c2cccc(O)c12)C(C)C` [Example 4-HO-DIPT, 4-hydroxy-N,N-diisopropyltryptamine]: the “Intensity of the HTR versus plasma concentration” value with rats is reported as “proportional to the plasma concentration”.

As for `CC(C)N(CCc1c[nH]c2cccc(OC(=O)CCCC(=O)O)c12)C(C)C` [Example 6, N,N diisopropyltryptamine-4-glutarate], in “Solubility in water”, the Solubility in water entry is “up to 50 mg/ml”. Moreover, the “Subjective effects (intensity of psychoactivity)” value in [1] (subcutaneous injection, 0.1-0.6 mg/kg) is reported as “correlates with blood levels”. The “Time after which the patient reports no longer feeling the effects of the drug” value in [2] turned out to be 4 h.

On to `CC(C)N(CCc1c[nH]c2cccc(OC(=O)CCCC(=O)O)c12)C(C)C` [Example 9, HCl salt of N,N diisopropyltryptamine-4-glutarate], for which the “Percentage of remaining prodrug” value in series [3] (time 0 h) is recorded as 100%; in [3] (time 0.004 h), 100%; in series [3] (time 0.5 h) it was 100%; in [3] (time 1 h), 100%; in series [3] (time 4 h), 101%; in series [4] (time 0 h) it was 100%. Besides, the “Percentage of remaining prodrug” value in series [4] (time 0.004 h) was 0%; in series [4] (time 0.5 h), 0%; in series [4] (time 1 h) it was 0%; in series [4] (time 2 h) it was 0%; in [4] (time 4 h) it was 0%; in series [5] (time 0 h) it was 100%. The “Percentage of remaining prodrug” value in series [5] (time 0.004 h) is 0%; in series [5] (time 0.5 h), 0%; in series [5] (time 1 h), 0%; in series [5] (time 2 h), 0%; in [5] (time 4 h) it was 0%; in series [7] (time 0 h), 100%. In addition, the “Percentage of remaining prodrug” value in series [7] (time 0.004 h) worked out at 100%; in series [7] (time 0.5 h), 87%; in series [7] (time 1 h), 79%; in series [7] (time 2 h), 64%; in series [7] (time 4 h), 39%; in series [8] (time 0 h), 100%. The “Percentage of remaining prodrug” value in series [8] (time 4 h) is listed as 93%; in series [9] (time 0 h), 100%; in [9] (time 0.004 h), 100%; in series [9] (time 0.5 h), 3.0%; in [9] (time 1 h), 0.23%; in series [9] (time 2 h), 0%. The “Percentage of remaining prodrug” value in [9] (time 4 h) stood at 0%. Also, the “Prodrug in blood samples after injection” value in [6] is on record as “prodrug was not observed”.

The values above are taken from patent publication US20250129023A1, “[…]” (Reunion Neuroscience, Inc., priority 2020, published 2025).
